For 22 compounds, EC50 results are on record in patent US10138255B2, “Piperazine derivatives as HIV protease inhibitors” (Merck Sharp & Dohme Corp., priority 2014, dated 2018).

In this test the test system is HIV-1 (H9IIIB strain). Description: Cell-Based HIV Infection Assay Using a Reporter (MT4-GFP cells). The following applies: Human immunodeficiency virus 1, inflection point (IP) of viral growth inhibition; MT4-GFP cells infected with HIV-1 H9IIIB; 50% normal human serum; mean of at least two independent experiments; read-out: Cell Based IP (50% NHS). The method, boiled down: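 MT4-GFP cells (HIV LTR-driven GFP) bulk-infected with HIV-1 H9IIIB at low MOI for 24 h, washed, then exposed to compounds in RPMI plus 50% normal human serum, 0.4% DMSO. Infected cells counted at 24 and 48 h; R0 = 48 h/24 h ratio, inhibition normalised to DMSO and triple-drug control; IP from 4-parameter fit.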
For `COC(=O)N[C@H](C(=O)Nc1cccc(F)c1CCC1CNC2CCCS(=O)(=O)N1C2)[C@H](c1ccc(F)cc1)C1CC(F)(F)C1` (stereo partly drawn) [Example 65, methyl [(1S,2S)-2-(3,3-difluorocyclobutyl)-1-({2-[2-(2,2-dioxido-2-thia-1,7-diazabicyclo[4.3.1]dec-9-yl)ethyl]-3-fluorophenyl}carbamoyl)-2-(4-fluorophenyl)ethyl]carbamate], the EC50 is 47 nM. As for `COc1ccc([C@H](c2ccc(F)c(F)c2)[C@H](N)C(=O)Nc2cccc(F)c2CCC2CNC3CCCS(=O)(=O)N2C3)cn1` (stereo partly drawn) [Example 66, (βS)-N-{2-[2-(2,2-dioxido-2-thia-1,7-diazabicyclo[4.3.1]dec-9-yl)ethyl]-3-fluorophenyl}-3,4-difluoro-β-(6-methoxypyridin-3-yl)-L-phenylalaninamide], the figure is 8.2 nM; as for `COc1cc([C@H](c2ccc(Cl)c(F)c2)[C@H](N)C(=O)Nc2cccc(F)c2CCC2CNC3CCCS(=O)(=O)N2C3)ccn1` (stereo partly drawn) [Example 67, (βR)-4-chloro-N-{2-[2-(2,2-dioxido-2-thia-1,7-diazabicyclo[4.3.1]dec-9-yl)ethyl]-3-fluorophenyl}-3-fluoro-β-(2-methoxypyridin-4-yl)-L-phenylalaninamide], 4.5 nM. As for `COC(=O)N[C@H](C(=O)Nc1cccc(F)c1CCC1CNC2CCCS(=O)(=O)N1C2)[C@H](c1ccnc(OC)c1)c1ccc(Cl)c(F)c1` (stereo partly drawn) [Example 69, methyl [(1S,2R)-2-(4-chloro-3-fluorophenyl)-1-({2-[2-(2,2-dioxido-2-thia-1,7-diazabicyclo[4.3.1]dec-9-yl)ethyl]-3-fluorophenyl}carbamoyl)-2-(2-methoxypyridin-4-yl)ethyl]carbamate], the figure is 13 nM. As for `CCC(CC)[C@H](c1ccc(Cl)cc1)[C@H](N)C(=O)Nc1cccc(F)c1CCC1CNC2CCCS(=O)(=O)N1C2` (stereo partly drawn) [Example 70, (βR)-4-chloro-N-{2-[2-(2,2-dioxido-2-thia-1,7-diazabicyclo[4.3.1]dec-9-yl)ethyl]-3-fluorophenyl}-β-(1-ethylpropyl)-L-phenylalaninamide], the figure is 49 nM; as for `CCC(CC)[C@H](c1ccc(Cl)cc1)[C@H](NC(=O)OC)C(=O)Nc1cccc(F)c1CCC1CNC2CCCS(=O)(=O)N1C2` (stereo partly drawn) [Example 71, methyl [(1S,2R)-2-(4-chlorophenyl)-1-({2-[2-(2,2-dioxido-2-thia-1,7-diazabicyclo[4.3.1]dec-9-yl)ethyl]-3-fluorophenyl}carbamoyl)-3-ethylpentyl]carbamate], 41 nM. Regarding `N[C@H](C(=O)Nc1cccc(F)c1CCC1CNC2CCCS(=O)(=O)N1C2)[C@H](c1cncc(Cl)c1)c1ccc(Cl)c(F)c1` (stereo partly drawn) [Example 72, (βS)-4-chloro-β-(5-chloropyridin-3-yl)-N-{2-[2-(2,2-dioxido-2-thia-1,7-diazabicyclo[4.3.1]dec-9-yl)ethyl]-3-fluorophenyl}-3-fluoro-L-phenylalaninamide], the EC50 was determined as 5.1 nM. Under `COC(=O)N[C@H](C(=O)Nc1cccc(F)c1CCC1CNC2CCCS(=O)(=O)N1C2)[C@H](c1cncc(Cl)c1)c1ccc(Cl)c(F)c1` (stereo partly drawn) [Example 73, methyl [(1S,2S)-2-(4-chloro-3-fluorophenyl)-2-(5-chloropyridin-3-yl)-1-({2-[2-(2,2-dioxido-2-thia-1,7-diazabicyclo[4.3.1]dec-9-yl)ethyl]-3-fluorophenyl}carbamoyl)ethyl]carbamate] stands 18 nM; under `N[C@H](C(=O)Nc1cccc(F)c1CCC1CNC2CCCS(=O)(=O)N1C2)[C@H](CCC1CCOCC1)c1ccc(Cl)c(F)c1` (stereo partly drawn) [Example 74, (βR)-4-chloro-N-{2-[2-(2,2-dioxido-2-thia-1,7-diazabicyclo[4.3.1]dec-9-yl)ethyl]-3-fluorophenyl}-3-fluoro-β-[2-(tetrahydro-2H-pyran-4-yl)ethyl]-L-phenylalaninamide], 151 nM; under `O=C(C[C@@H](c1ccc(Cl)c(F)c1)N1CCOCC1)N[C@H]1CCC[C@@H]1CC[C@H]1CN[C@@H]2CCCS(=O)(=O)N1C2` [Example 75, (3S)-3-(4-chloro-3-fluorophenyl)-N-[(1S,2R)-2-{2-[(6R,9S)-2,2-dioxido-2-thia-1,7-diazabicyclo[4.3.1]dec-9-yl]ethyl}cyclopentyl]-3-morpholin-4-ylpropanamide], 110 nM.

Turning to `N[C@H](C(=O)N[C@H]1CCC[C@@H]1CC[C@H]1CN[C@@H]2CCCS(=O)(=O)N1C2)[C@H](c1cncc(C(F)(F)F)c1)c1ccc(Cl)c(F)c1` [Example 76, (βS)-4-chloro-N-[(1S,2R)-2-{2-[(6R,9S)-2,2-dioxido-2-thia-1,7-diazabicyclo[4.3.1]dec-9-yl]ethyl}cyclopentyl]-3-fluoro-β-[5-(trifluoromethyl)pyridin-3-yl]-L-phenylalaninamide], the EC50 worked out at 30 nM.

For the compound `COC(=O)N[C@H](C(=O)N[C@H]1CCC[C@@H]1CC[C@H]1CN[C@@H]2CCCS(=O)(=O)N1C2)[C@H](c1cncc(F)c1)c1ccc(Cl)c(F)c1` [Example 77, methyl [(1S,2S)-2-(4-chloro-3-fluorophenyl)-1-{[(1S,2R)-2-{2-[(6R,9S)-2,2-dioxido-2-thia-1,7-diazabicyclo[4.3.1]dec-9-yl]ethyl}cyclopentyl]carbamoyl}-2-(5-fluoropyridin-3-yl)ethyl]carbamate], the EC50 was found to be 57 nM. As for `COC(=O)N[C@H](C(=O)N[C@H]1CCC[C@@H]1CC[C@H]1CN[C@@H]2CCCS(=O)(=O)N1C2)[C@@H](c1ccc(Cl)cc1)c1ccc(OC)nc1` [Example 78, methyl [(1S,2S)-2-(4-chlorophenyl)-1-{[(1S,2R)-2-{2-[(1S,2S)-2,2-dioxido-2-thia-1,7-diazabicyclo[4.3.1]dec-9-yl]ethyl}cyclopentyl]carbamoyl}-2-(6-methoxypyridin-3-yl)ethyl]carbamate], the figure is 38 nM; as for `COC(=O)N[C@H](C(=O)N[C@H]1CCC[C@@H]1CC[C@H]1CN[C@@H]2CCCS(=O)(=O)N1C2)[C@H](c1cncc(C(F)(F)F)c1)c1ccc(Cl)c(F)c1` [Example 79, methyl {(1S,2S)-2-(4-chloro-3-fluorophenyl)-1-{[(1S,2R)-2-{2-[(6R,9S)-2,2-dioxido-2-thia-1,7-diazabicyclo[4.3.1]dec-9-yl]ethyl}cyclopentyl]carbamoyl}-2-[5-(trifluoromethyl)pyridin-3-yl]ethyl}carbamate], 31 nM; as for `COc1ccc([C@H](c2ccc(Cl)cc2)[C@H](N)C(=O)N[C@H]2CCC[C@@H]2CC[C@H]2CN[C@@H]3CCCS(=O)(=O)N2C3)cn1` [Example 80, (βS)-4-chloro-N-[(1S,2R)-2-{2-[(6R,9S)-2,2-dioxido-2-thia-1,7-diazabicyclo[4.3.1]dec-9-yl]ethyl}cyclopentyl]-β-(6-methoxypyridin-3-yl)-L-phenylalaninamide], 71 nM. With `N[C@H](C(=O)N[C@H]1CCC[C@@H]1CC[C@H]1CN[C@@H]2CCCS(=O)(=O)N1C2)[C@H](c1cncc(F)c1)c1ccc(Cl)c(F)c1` [Example 81, (βS)-4-chloro-N-[(1S,2R)-2-{2-[(6R,9S)-2,2-dioxido-2-thia-1,7-diazabicyclo[4.3.1]dec-9-yl]ethyl}cyclopentyl]-3-fluoro-β-(5-fluoropyridin-3-yl)-L-phenylalaninamide], the EC50 was 68 nM.

As for `COC(=O)N[C@H](C(=O)N[C@H]1CCC[C@@H]1CC[C@H]1CN[C@@H]2CCCS(=O)(=O)N1C2)[C@@H](c1ccccc1)c1ccc(OC)nc1` [Example 82, methyl {(1S)-2-{[(1S,2R)-2-{2-[(6R,9S)-2,2-dioxido-2-thia-1,7-diazabicyclo[4.3.1]dec-9-yl]ethyl}cyclopentyl]amino}-1-[(S)-(6-methoxypyridin-3-yl)(phenyl)methyl]-2-oxoethyl}carbamate], the EC50 was 160 nM. `COC(=O)N[C@H](C(=O)Nc1cccc(F)c1CC[C@H]1CN[C@@H]2CCCS(=O)(=O)N1C2)C(c1ccc(F)cc1)[C@H]1C[C@@H](C)O[C@@H](C)C1` (stereo partly drawn) [Example 83, methyl [(1S)-2-[(2R,4r,6S)-2,6-dimethyltetrahydro-2H-pyran-4-yl]-1-[(2-{2-[(6R,9S)-2,2-dioxido-2-thia-1,7-diazabicyclo[4.3.1]dec-9-yl]ethyl}-3-fluorophenyl)carbamoyl]-2-(4-fluorophenyl)ethyl]carbamate]: the EC50 came out at 8.2 nM. As for `N[C@H](C(=O)Nc1cccc(F)c1OCC1CNC2CCCS(=O)(=O)N1C2)[C@@H](c1ccc(F)cc1)c1cc(F)cc(F)c1` (stereo partly drawn) [Example 84, (βS)-β-(3,5-difluorophenyl)-N-{2-[(2,2-dioxido-2-thia-1,7-diazabicyclo[4.3.1]dec-9-yl)methoxy]-3-fluorophenyl}-4-fluoro-L-phenylalaninamide], the figure is 210 nM; as for `COC(=O)N[C@H](C(=O)Nc1cccc(F)c1OCC1CNC2CCCS(=O)(=O)N1C2)[C@@H](c1ccc(F)cc1)c1cc(F)cc(F)c1` (stereo partly drawn) [Example 85, methyl [(1S,2S)-2-(3,5-difluorophenyl)-1-({2-[(2,2-dioxido-2-thia-1,7-diazabicyclo[4.3.1]dec-9-yl)methoxy]-3-fluorophenyl}carbamoyl)-2-(4-fluorophenyl)ethyl]carbamate], 150 nM; as for `N[C@H](C(=O)Nc1cccc(F)c1CCC1CNC2CCCS(=O)(=O)N1C2)[C@@H](c1ccc(F)cc1)C12CC(C1)C2` (stereo partly drawn) [Example 86, (βR)-β-bicyclo[1.1.1]pent-1-yl-N-{2-[2-(2,2-dioxido-2-thia-1,7-diazabicyclo[4.3.1]dec-9-yl)ethyl]-3-fluorophenyl}-4-fluoro-L-phenylalaninamide], 340 nM. For the compound `COC(=O)N[C@H](C(=O)Nc1cccc(F)c1CCC1CNC2CCCS(=O)(=O)N1C2)[C@@H](c1ccc(F)cc1)C12CC(C1)C2` (stereo partly drawn) [Example 87, methyl [(1S,2R)-2-bicyclo[1.1.1]pent-1-yl-1-({2-[2-(2,2-dioxido-2-thia-1,7-diazabicyclo[4.3.1]dec-9-yl)ethyl]-3-fluorophenyl}carbamoyl)-2-(4-fluorophenyl)ethyl]carbamate], the EC50 worked out at 130 nM.
